Laboratory results taken from patent publication US20120190580A1, “TREATMENT OF PATIENTS AFTER STENT IMPLANTATION OR BALLOON DILATATION AND DRUG ELUTING STENTS” (MAX-PLANCK-GESELLSCHAFT ZUR FORDERUNG DER WISSENSCHAFTEN …, priority 2009, published 2012).
“Also recorded” adds a separate entry of the source.

Legend:
Assay type in all cases: in vivo, mouse
[1] = tested on: femoral arteries from KO mice; test: Myograph: contractility of isolated femoral artery rings from mice chronically treated with captopril
Description: (§1) A 129S7AB2.2 genomic BAC clone (bMQ-446B20; Sanger) was used to generate the targeting vector. Recombination in SW102 cell was employed to replace the miR-143 to miR-145 genomic region by a galK cassette (45) that was amplified by the primers flanking premiR-143 to pre-miR-145 ([…] GCggcgcgcctcagcactgtcctgctcctt; […] ACggcgcgcctgttgacaattaatcatcggca). The genomic sequence was inserted via gap repair into a pKO targeting vector containing a DTA expression cassette and 450 bp homology arms for BAC recombination resulting in a vector containing 6.5 kb of sequence 5′ of miR-143 and 5.5 kb 3′ of miR-145 from genomic sequence […] to […]. The AscI restriction sites flanking the galK cassette were used to replace the galK by a floxed IRESIacZ-NeoR cassette. The vector was electroporated into MPI II ES cells (46) and recombinant clones were identified. Recombinant ES cells were injected into blastocysts and transferred to pseudopregnant mice. Chimeric animals were backcrossed to C57BL/6 mice. Heterozygous animals were used to obtain WT and KO littermates. ES cells and mice were genotyped using an EcoRV restriction digest and a 5′ outside probe amplified from genomic DNA using oligonucleotides ([…]; […]). […] The experiments were performed in accordance with German legislation on protection of animals and were approved by the local governmental animal care committee (Regierungspraesidium Darmstadt).
Isolated segments of femoral and mesenteric arteries were examined in an isometric microvessel myograph as described previously (52). Mounted vessels were stimulated with 80 mM K+, 30 nM angiotensin II or increasing concentrations of phenylephrine (100 nM to 10 μM). The pCa-force relationships (13, 14) were obtained in permeabilized mouse femoral artery segments. In brief, arteries were permeabilized for 30 minutes using 0.5% Triton X-100 in relaxation solution. The latter consisted of (in mM): EGTA 1, Pipes 30, Na2ATP 5.16, MgCl2 7.31, sodium creatine phosphate 10 and potassium gluconate 74.1. For contraction curves the buffer was supplemented with 160 U/ml calmodulin and 100 U/ml creatine phosphokinase. The concentration of free Ca2+ ions was calculated as described previously (53).

[2] = tested on: miR-143/145-deficient mice; test: Hemodynamic measurements by aortic catheterization under isoflurane, acute ACE inhibition; conditions: miR-143/145 KO animals compared with WT, isoflurane anaesthesia, captopril via jugular vein
Protocol: Aortic catheterization was performed using a 1.4 F pressure-volume catheter. Data were recorded and analyzed with Chart v5.4 as described before (51). Mice were anaesthetized with isoflurane (2 vol % in O2) and their body temperature was kept at 37° C. as monitored by a rectal probe. Captopril (30 mg/kg body weight, 50 μl) and angiotensin II (5 to 50000 ng/kg body weight, 50 μl) were applied via the left jugular vein. For measurements of conscious, unrestrained mice, hemodynamic parameters were recorded by telemetry (DSI, Transoma Medical, USA, TA11PA-C10 transmitters) after a recovery period from surgery of more than 7 days. Recordings were obtained every 2 minutes for 20 seconds at a sampling frequency of 1000 Hz and were analyzed for day (07:00-19:00) and nighttime (19:00-07:00) periods, respectively, to evaluate circadian variation in hemodynamics.

[3] = tested on: aortae of miR-143/145 KO mice; test: Affymetrix GeneChip mRNA expression analysis of aortae after chronic captopril or losartan
Description: as §1
Tissues were dissected from PBS perfused animals and total RNA was isolated using the Trizol method (Invitrogen). RNA quality was checked on the Agilent 2100 Bioanalyser using the RNA 6000 Nano Kit. For mRNA expression analysis the Affymetrix GeneChip Mouse Genome 430 2.0 Array was employed with the respective one-cycle target labelling protocol. Data were analysed by the RMA algorithm using the Affymetrix Expression Console. […] 507 probe sets were identified with p<0.05 and FC>1.5 or FC<0.666. For miRNA expression analysis 384 3′ C6 aminolinker DNA-oligonucleotides complementary to published miRNA (Sanger, miRBase) sequences were synthesised and spotted with eight replicates per array to Nexterion E slides. Probe labelling and hybridization followed the Agilent miRNA labelling protocol, but P-CTTTT-Alexa555 or P-CTTTTAlexa647 oligonucleotides (MWG-Biotech) were ligated to the miRNAs. Arrays were scanned and analysed with an Axon 4200B scanner and GenePix Pro 6.0. Normalisation and data analysis was performed using Acuity 4.0. For multiple tissue comparison, miRNA from tissues was labelled with the Alexa555 dye, miRNA from whole E15.5 embryos labelled with Alexa647 dye was used as a reference. Data were linear normalized to a log ratio of 1 for the ratio of medians of let-7a-g and let-7i signals. The log 2 ratio data were centered for the single miRNA expression signals (by subtracting the row mean from each value), log 2 ratio data are visualized. For Northern blot analysis 3 μg (aorta 1.5 μg) of total RNA were separated on a 15% Polyacrylamide-Urea gel (Invitrogen) and blotted on Hybond XL (Amersham). miR-145, miR-143 and U6 antisense oligonucleotides were labeled with γ-ATP and PNK (NEB) and purified using Micro Bio-Spin® 6 columns (Biorad). Hybridization was performed in Ultrahyb hybridization buffer (Ambion) at 30° C. over night. Blots were washed 2 times in 2×SSC/0.1% SDS at 25° C. (5 min) and at 42° C. (15 min). Signals were detected using a BAS-2500 imager (Fujifilm).

arteries of KO mice = test: Morphological analysis of arteries after chronic treatment; conditions: 20 days treatment
Description: A 129S7AB2.2 genomic BAC clone (bMQ-446B20; Sanger) was used to generate the targeting vector. Recombination in SW102 cell was employed to replace the miR-143 to miR-145 genomic region by a galK cassette (45) that was amplified by the primers flanking premiR-143 to pre-miR-145 ([…] GCggcgcgcctcagcactgtcctgctcctt; […] ACggcgcgcctgttgacaattaatcatcggca). The genomic sequence was inserted via gap repair into a pKO targeting vector containing a DTA expression cassette and 450 bp homology arms for BAC recombination resulting in a vector containing 6.5 kb of sequence 5′ of miR-143 and 5.5 kb 3′ of miR-145 from genomic sequence […] to […]. The AscI restriction sites flanking the galK cassette were used to replace the galK by a floxed IRESIacZ-NeoR cassette. […]
Arteries were perfused using a PBS solution via the heart apex at 100 mmHg pressure for 2 min, followed by perfusion with 4% paraformaldehyde in PBS. […] Ultra-thin sections were stained with uranyl acetate and lead citrate, viewed and photographically recorded using a Philips CM 10 electron microscope. The phenotype of VSMC was determined ultrastructurally following criteria as previously reported (47). […] The phenotype of VSMC in each mouse was quantified in at least 300 cells per 3 arterial segments (minimum 100 μm) using consecutive transversal sections. […]

[4] = KO femoral arteries, chronic captopril
[5] = mutant (KO) femoral arteries, captopril treatment vs. KO untreated
[6] = aorta, chronic oral treatment 20 days

## C[C@H](CS)C(=O)N1CCC[C@H]1C(=O)O [captopril]
[1]; [4]
  angiotensin II-induced contraction after ACE inhibition: 9 % of K+ contraction
  maximal force of contraction generated by K+-induced depolarization: No change; also recorded: did not improve
  phenylephrine-effects after ACE inhibition: 46 % of the K+ contraction
[1]; captopril-treated WT vessels, femoral artery, 20 day oral treatment
  Maximal angiotensin II-induced force of contraction: 3.4±0.6 mN
[1]; femoral arteries from miR-143/145 KO mice after captopril treatment, 20 days oral
  Maximal angiotensin II-induced force of contraction: 0.30±0.05 mN
[1]; [5]
  angiotensin II induced contractile responses: significantly improved; also recorded: markedly improved
  contractile response to phenylephrine: improved responses; also recorded: markedly improved
[2]
  diastolic pressure after acute inhibition of ACE: stronger decrease; also recorded: pronounced reduction
[3]; [6]
  FC Acta1 (1427735_a_at), treated miR-143/145 KO vs. WT: 0.87
  FC Arhgef17 (1433682_at), treated miR-143/145 KO vs. WT: 0.82
  FC Cald1 (1424768_at), treated miR-143/145 KO vs. WT: 1.09
  FC Camk2g (1423942_a_at), treated miR-143/145 KO vs. WT: 0.87
  FC Cap2 (1423222_at), treated miR-143/145 KO vs. WT: 0.77
  FC Clcn3 (1433486_at), treated miR-143/145 KO vs. WT: 1.09
  FC Efemp1 (1427183_at), treated miR-143/145 KO vs. WT: 1.22
  FC Itga3 (1455158_at), treated miR-143/145 KO vs. WT: 0.76
  FC Krt8 (1420647_a_at), treated miR-143/145 KO vs. WT: 1.09
  FC Mc2r (1422926_at), treated miR-143/145 KO vs. WT: 1.23
  FC Mylk (1425506_at), treated miR-143/145 KO vs. WT: 0.90
  FC Mylpf (1448371_at), treated miR-143/145 KO vs. WT: 0.77
  FC Myoc (1450468_at), treated miR-143/145 KO vs. WT: 0.99
  FC Neo1 (1440789_at), treated miR-143/145 KO vs. WT: 1.07
  FC Npr3 (1435184_at), treated miR-143/145 KO vs. WT: 1.00
  FC Pde3b (1433694_at), treated miR-143/145 KO vs. WT: 1.04
  FC Ppp2r1b (1419871_at), treated miR-143/145 KO vs. WT: 0.81
  FC Prkg1 (1449876_at), treated miR-143/145 KO vs. WT: 1.12
  FC Rock1 (1460729_at), treated miR-143/145 KO vs. WT: 0.99
  FC S100a8 (1419394_s_at), treated miR-143/145 KO vs. WT: 0.81
  FC S100a9 (1448756_at), treated miR-143/145 KO vs. WT: 0.78
  FC Serca1 (1419312_at), treated miR-143/145 KO vs. WT: 0.72
  FC Tnnc2 (1417464_at), treated miR-143/145 KO vs. WT: 1.13
  FC Unc5c (1449522_at), treated miR-143/145 KO vs. WT: 0.63
[3]; mutant mice, 3 weeks (20 days) oral application, p > 0.05 vs. WT, n = 3
  number of the 507 deregulated probe sets returned to normal (WT) levels: 248
Arteries of KO mice
  significant morphological changes in arteries: not observed
